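How tested: cells in 96-well plates exposed to compound for 48 hours at five concentrations. GI50 is the concentration that inhibits growth by half.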 Activity calls are given as the source filed them. No stated cut-off is given here; in the data, active = GI50 up to about 1.1 µM and inactive = higher.
Key:
Assay in all cases: NCI tumour cell line growth inhibition, 48 h
SF-295 = test system: SF-295
HCT-116 = test system: HCT-116
M14 = test system: M14
OVCAR-3 = test system: OVCAR-3
LOX IMVI = test system: LOX IMVI
COLO 205 = test system: COLO 205
NCI-H23 = test system: NCI-H23
SK-MEL-28 = test system: SK-MEL-28
TK-10 = test system: TK-10
UO-31 = test system: UO-31
NCI-H522 = test system: NCI-H522
786-0 = test system: 786-0
Malme-3M = test system: Malme-3M
SNB-19 = test system: SNB-19
HCT-15 = test system: HCT-15
SK-OV-3 = test system: SK-OV-3
OVCAR-5 = test system: OVCAR-5
KM12 = test system: KM12
DU-145 = test system: DU-145

| Structure (SMILES) | GI50 (SF-295) | GI50 (HCT-116) | GI50 (M14) | GI50 (OVCAR-3) | GI50 (LOX IMVI) | GI50 (COLO 205) | GI50 (NCI-H23) | GI50 (SK-MEL-28) | GI50 (TK-10) | GI50 (UO-31) | GI50 (NCI-H522) | GI50 (786-0) | GI50 (Malme-3M) | GI50 (SNB-19) | GI50 (HCT-15) [µM] | GI50 (SK-OV-3) | GI50 (OVCAR-5) | GI50 (KM12) | GI50 (DU-145) |
| --- | --- | --- | --- | --- | --- | --- | --- | --- | --- | --- | --- | --- | --- | --- | --- | --- | --- | --- | --- |
| CN1CC[C@]2(C)c3c(O)cccc3CC3CCCC1C32C (stereo not given in full) | > 100 µM (inactive) | > 100 µM (inactive) | > 100 µM (inactive) | > 100 µM (inactive) | > 100 µM (inactive) | > 100 µM (inactive) | > 100 µM (inactive) | > 100 µM (inactive) | > 100 µM (inactive) | > 100 µM (inactive) | > 100 µM (inactive) | > 100 µM (inactive) | > 100 µM (inactive) | > 100 µM (inactive) | > 100 | > 100 µM (inactive) | > 100 µM (inactive) | > 100 µM (inactive) |  |
| CC1(Br)C(=O)NC(=O)N([C@H]2C[C@H](O)[C@@H](CO)O2)C1N=[N+]=[N-] (stereo not given in full) | > 100 µM (inactive) | > 100 µM (inactive) | > 100 µM (inactive) | > 100 µM (inactive) | > 100 µM (inactive) | > 100 µM (inactive) | > 100 µM (inactive) | > 100 µM (inactive) | > 100 µM (inactive) | > 100 µM (inactive) | > 100 µM (inactive) | > 100 µM (inactive) | > 100 µM (inactive) | > 100 µM (inactive) | > 100 | > 100 µM (inactive) | > 76.2 µM (inactive) | > 100 µM (inactive) |  |
| N#Cc1c(O)c(C=O)c(=O)n2c1[nH]c1ccccc12 | > 100 µM (inactive) | > 100 µM (inactive) | > 100 µM (inactive) | > 100 µM (inactive) | > 100 µM (inactive) | > 100 µM (inactive) | > 100 µM (inactive) | > 100 µM (inactive) | > 100 µM (inactive) | > 100 µM (inactive) | > 100 µM (inactive) | > 100 µM (inactive) | > 100 µM (inactive) | > 100 µM (inactive) | > 100 | > 100 µM (inactive) | > 100 µM (inactive) | > 100 µM (inactive) | > 100 µM (inactive) |
| Cc1c(C(=O)O)n(C)c(=O)n(C)c1=O | > 100 µM (inactive) | > 100 µM (inactive) | > 100 µM (inactive) | > 100 µM (inactive) | > 100 µM (inactive) | > 100 µM (inactive) | > 100 µM (inactive) | > 100 µM (inactive) | > 100 µM (inactive) | > 100 µM (inactive) | > 100 µM (inactive) | > 100 µM (inactive) | > 100 µM (inactive) | > 100 µM (inactive) | > 100 | > 100 µM (inactive) | > 100 µM (inactive) | > 100 µM (inactive) |  |
| CSc1ncnc2c1ncn2CCC#N | > 100 µM (inactive) | > 100 µM (inactive) | > 100 µM (inactive) | > 100 µM (inactive) | > 100 µM (inactive) | > 100 µM (inactive) | > 100 µM (inactive) | > 100 µM (inactive) | > 100 µM (inactive) | > 100 µM (inactive) | > 100 µM (inactive) | > 100 µM (inactive) | > 100 µM (inactive) | > 100 µM (inactive) |  | > 100 µM (inactive) | > 100 µM (inactive) | > 100 µM (inactive) | > 100 µM (inactive) |
| O=C1CCCC[C@H]1C(O)CC1CC(=O)N(c2ccccc2)C(=O)C1 (stereo not given in full) | > 100 µM (inactive) | > 100 µM (inactive) | > 100 µM (inactive) | > 100 µM (inactive) | > 100 µM (inactive) |  | > 100 µM (inactive) | > 100 µM (inactive) | > 100 µM (inactive) | > 100 µM (inactive) | > 100 µM (inactive) | > 100 µM (inactive) | > 100 µM (inactive) | > 100 µM (inactive) | > 100 |  | > 100 µM (inactive) | > 100 µM (inactive) | > 100 µM (inactive) |
| COc1cc(/C=C(\NC(=O)c2ccccc2)c2nc3ccc4c(c3[nH]2)C(=O)c2ccccc2C4=O)cc(OC)c1OC | 55.7 µM (inactive) | 23.1 µM (inactive) | 63.1 µM (inactive) | 38.1 µM (inactive) | 20.3 µM (inactive) | > 100 µM (inactive) | 55.6 µM (inactive) | 77.6 µM (inactive) | 29.2 µM (inactive) | 2.36 µM (inactive) | 7.24 µM (inactive) | 28.2 µM (inactive) | > 100 µM (inactive) | 99.1 µM (inactive) | 35.7 | 18.6 µM (inactive) | > 100 µM (inactive) | 8.05 µM (inactive) |  |
| C(=C\c1ccco1)/c1cccc(/C=C/c2ccco2)n1 | > 50 µM (inactive) | > 50 µM (inactive) | > 50 µM (inactive) | > 50 µM (inactive) | > 50 µM (inactive) | > 50 µM (inactive) | > 50 µM (inactive) | > 50 µM (inactive) | > 50 µM (inactive) | > 50 µM (inactive) | > 50 µM (inactive) | > 50 µM (inactive) | > 50 µM (inactive) | > 50 µM (inactive) | > 50 | > 50 µM (inactive) | > 50 µM (inactive) | > 50 µM (inactive) | > 50 µM (inactive) |

From ChEMBL document CHEMBL1201862, “PubChem BioAssay data set” (2004)
